Among the data in patent publication US20220372031A1, “NOVEL TRICYCLIC AROMATIC HETEROCYCLIC COMPOUND, PREPARATION METHOD THEREFOR, PHARMACEUTICAL COMPOSITION AND APPLICATION THEREOF” (SHANGHAI LONGWOOD BIOPHARMACEUTICALS CO., LTD., priority 2019, published 2022) are IC50 values, retold here.

A value given as a limit tells only on which side of the number the result lay.

T1 sequence (Q9NZQ7 19-238): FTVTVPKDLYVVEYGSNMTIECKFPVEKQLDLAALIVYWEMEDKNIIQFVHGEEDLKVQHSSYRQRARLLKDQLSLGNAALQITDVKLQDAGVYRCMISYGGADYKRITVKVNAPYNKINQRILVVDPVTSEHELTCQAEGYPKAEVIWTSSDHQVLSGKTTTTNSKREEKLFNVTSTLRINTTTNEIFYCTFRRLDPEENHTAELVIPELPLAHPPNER

This test addresses T1, PD-1/PD-L1 (Homo sapiens, UniProt Q9NZQ7).
T1 construct: Recombinant human PD-L1 protein (19-238) with a His-tagged at the C-terminus; purchased AcroBiosystems PD1-H5229 (PD-L1); PD1-H5257 (PD-1)
Kind of test: PD-1/PD-L1 homogeneous time-resolved fluorescence (HTRF) binding assay. The settings on record: PD-1/PD-L1 HTRF binding, ~3 nM PD1, 10 nM PD-L1, 25° C., PBS pH 7.4. How it is done: Assays were performed in standard black 384-well polystyrene plates and a final volume was 20 μL. The inhibitor was first serially diluted with DMSO and added to the wells of the plate, followed by the addition of other reaction components. The final concentration of DMSO in the assay was 1%. Assays were performed at 25° C. in PBS buffer (pH 7.4) containing 0.05% Tween-20 and 0.1% BSA. Recombinant human PD-L1 protein (19-238) with a His-tagged at the C-terminus was purchased from AcroBiosystems (PD1-H5229). Recombinant human PD-1 protein (25-167) with an Fc tag at the C-terminus was also purchased from AcroBiosystems (PD1-H5257). The PD-L1 and PD-1 proteins were diluted in assay buffer and then […] of the solution was extracted and added to the wells of the plate. Plates were centrifuged and proteins and inhibitors were preincubated for 40 minutes. After incubation, 0.1 μl of HTRF detection buffer containing europium […] labeled anti-human IgG (PerkinElmer-AD0212), Fc-specific and anti-His SureLight®-Allophycocyanin (APC, PerkinElmer-AD0059H) conjugated antibodies was added. After centrifugation, the plates were incubated at 25° C. for 60 minutes. Data was read in a PHERAstar FS plate reader (665 nm/620 nm ratio). Final concentrations in the assay were ˜3 nM PD1, 10 nM PD-L1, 1 nM europium anti-human IgG, and 20 nM anti-His-allophycocyanin. Activity data were fitted using GraphPad Prism 5_0 software to derive IC50 values for inhibitors.
A general note: In TR-FRET formats the signal depends on donor and acceptor labels being close together.
For the molecule `COc1nc(-c2cccc(-c3cccc(-c4cc5cc6c(c(C#N)c5o4)CC[C@H]6N4CC[C@@H](C(=O)NS(=O)(=O)C5(C)CC5)C4)c3C)c2C)cnc1CN1CC[C@@H](O)C1` [Compound 264], the 50% inhibitory concentration (IC50) – broadly, the concentration at which inhibition is half-maximal – is not above 10 nM.

With `COc1nc(-c2cccc(-c3cccc(-c4cc5cc6c(c(C#N)c5o4)CC[C@H]6N4CC[C@@H](C(=O)NS(=O)(=O)C5(C)CC5)C4)c3Cl)c2Cl)cnc1CN1CC[C@@H](O)C1` [Compound 265], the IC50 was not above 10 nM.

For the molecule `COc1nc(-c2cccc(-c3cccc(-c4cc5cc6c(c(C#N)c5o4)CC[C@H]6N4CC[C@@H](C(=O)NS(=O)(=O)C5(C)CC5)C4)c3Cl)c2C)cnc1CN1CC[C@@H](O)C1` [Compound 266], the concentration for half-maximal inhibition (IC50) is not above 10 nM.

In turn, `COc1nc(-c2cccc(-c3cccc(-c4cc5cc6c(c(C#N)c5o4)CC[C@H]6N4CC[C@@H](C(=O)NS(=O)(=O)C5(C)CC5)C4)c3C)c2Cl)cnc1CN1CC[C@@H](O)C1` [Compound 267] yielded an IC50 not above 10 nM.

`COc1nc(-c2cccc(-c3cccc(-c4nc5cc6c(c(C#N)c5o4)CC[C@H]6N4CC[C@@H](C(=O)O)C4)c3Cl)c2C)cnc1CNC[C@@H]1CCC(=O)N1` [Compound 268] came in with a concentration for half-maximal inhibition (IC50) not above 10 nM.

`COc1nc(-c2cccc(-c3cccc(-c4cc5cc6c(c(C#N)c5o4)CC[C@H]6N4CC[C@@H](C(=O)O)C4)c3Cl)c2C)cnc1CNC[C@@H]1CCC(=O)N1` [Compound 271] had an IC50 not above 10 nM.

Consider `Cc1c(Nc2nccc3cc(CNC[C@@H]4CCC(=O)N4)cnc23)cccc1-c1cccc(-c2cc3cc4c(c(C#N)c3o2)CC[C@H]4N2CC[C@@H](C(=O)O)C2)c1Cl` [Compound 274], for which the IC50 is not above 10 nM.

The molecule `Cc1c(Nc2nccc3cc(CN4CC[C@@H](O)C4)cnc23)cccc1-c1cccc(-c2cc3c4c(cc([N+](=O)[O-])c3o2)C(N2CC(C(=O)O)C2)CCC4)c1C` (some centres unmarked) [Compound 280] gave an IC50 of more than 100 nM.
